Test results reported in patent publication US20190117713A1, “ANTIBACTERIAL COMPOSITION” (FermBiotics Holding ApS, priority 2016, published 2019).

Test system: streptococcus infection
Experiment: Treatment of a patient suffering from a streptococcus infection (case report)
Conditions: treatment repeated 4 times more

phenoxymethylpenicillinsodium
Improvement of streptococcus infection after repeated treatment: no significant improvement
